Values of other authors, collected in patent publication US20100297232A1, “ONDANSETRON FILM COMPOSITIONS” (MonoSol Rx, LLC, priority 2009, published 2010).
Like-named read-outs stand apart in the source and are kept apart here.

- solubility (pH 1.2 and below): soluble
- solubility (pH 8): practically insoluble
Structure (SMILES): Cc1nccn1CC1CCc2c(c3ccccc3n2C)C1=O (centres unmarked) [ondansetron base, ondansetron]
